According to patent publication US11124494B2, “Aryl heterocyclic piperidinone formyl peptide 2 receptor and formyl peptide 1 receptor agonists” (Bristol-Myers Squibb Company, priority 2017, dated 2021):
Where two headings read alike, the source gives them in different places.

Legend:
human FPR2 receptors = human FPR2 receptors (Homo sapiens (Human), UniProt P25090); assay: FPR2 cyclic adenosine monophosphate (cAMP) assay; format: cell-based; conditions: CHO cells overexpressing human FPR2
Experimental: (§1) FPR2 and FPR1 Cyclic Adenosine Monophosphate (cAMP) Assays. A mixture of forskolin (5 μM final for FPR2 or 10 μM final for FPR1) and IBMX (200 μM final) were added to 384-well Proxiplates (Perkin-Elmer) pre-dotted with test compounds in DMSO (1% final) at final concentrations in the range of 1.7 nM to 100 μM. Chinese Hamster Ovary cells (CHO) overexpressing human FPR1 or human FPR2 receptors were cultured in F-12 (Ham's) medium supplemented with 10% qualified FBS, 250 μg/ml zeocin and 300 μg/ml hygromycin (Life Technologies). Reactions were initiated by adding 2,000 human FPR2 cells per well or 4,000 human FPR1 cells per well in Dulbecco's PBS (with calcium and magnesium) (Life Technologies) supplemented with 0.1% BSA (Perkin-Elmer). The reaction mixtures were incubated for 30 min at room temperature. The level of intracellular cAMP was determined using the HTRF HiRange cAMP assay reagent kit (Cisbio) according to manufacturer's instruction. Solutions of cryptate conjugated anti-cAMP and d2 flurorophore-labelled cAMP were made in a supplied lysis buffer separately. Upon completion of the reaction, the cells were lysed with equal volume of the d2-cAMP solution and anti-cAMP solution. After a 1-h room temperature incubation, time-resolved fluorescence intensity was measured using the Envision (Perkin-Elmer) at 400 nm excitation and dual emission at 590 nm and 665 nm. A calibration curve was constructed with an external cAMP standard at concentrations ranging from 1 μM to 0.1 pM by plotting the fluorescent intensity ratio from 665 nm emission to the intensity from the 590 nm emission against cAMP concentrations. The potency and activity of a compound to inhibit cAMP production was then determined by fitting to a 4-parametric logistic equation from a plot of cAMP level versus compound concentrations.

human FPR1 receptors = human FPR1 receptors (Homo sapiens (Human), UniProt P21462); assay: FPR1 cyclic adenosine monophosphate (cAMP) assay; format: cell-based; conditions: CHO cells overexpressing human FPR1; forskolin 10 μM, IBMX 200 μM; inhibition of cAMP production; read-out: hFPR1 cAMP EC50
Chain of human FPR1 receptors (P21462 whole entry): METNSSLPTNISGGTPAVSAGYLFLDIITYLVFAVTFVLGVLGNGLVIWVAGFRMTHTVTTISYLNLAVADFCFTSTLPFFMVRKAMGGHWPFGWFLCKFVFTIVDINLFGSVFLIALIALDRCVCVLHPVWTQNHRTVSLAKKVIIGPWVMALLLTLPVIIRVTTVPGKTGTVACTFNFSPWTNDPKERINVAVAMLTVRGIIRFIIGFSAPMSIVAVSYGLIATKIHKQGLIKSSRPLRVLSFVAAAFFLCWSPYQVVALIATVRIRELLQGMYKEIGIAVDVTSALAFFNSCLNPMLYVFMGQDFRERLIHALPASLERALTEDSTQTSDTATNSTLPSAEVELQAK
Experimental: as §1

[1] = forskolin 5 μM, IBMX 200 μM, inhibition of cAMP production, read-out: hFPR2 cAMP2 EC50
[2] = hFPR2 Assay, potency bins, read-out: hFPR2 agonist activity EC50 values

Chain of human FPR2 receptors (P25090 whole entry): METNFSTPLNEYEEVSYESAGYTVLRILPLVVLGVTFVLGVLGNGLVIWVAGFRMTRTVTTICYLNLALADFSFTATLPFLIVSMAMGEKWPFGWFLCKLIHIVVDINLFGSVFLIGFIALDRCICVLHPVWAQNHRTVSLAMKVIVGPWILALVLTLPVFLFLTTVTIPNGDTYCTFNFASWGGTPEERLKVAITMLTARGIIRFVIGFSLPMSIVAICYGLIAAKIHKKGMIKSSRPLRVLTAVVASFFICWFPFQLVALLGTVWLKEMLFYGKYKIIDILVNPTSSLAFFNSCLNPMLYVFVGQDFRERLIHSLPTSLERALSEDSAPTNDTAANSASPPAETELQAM

Compound | EC50 (human FPR2 receptors; [1]) [µM] | EC50 (human FPR1 receptors) [µM] | EC50 (human FPR2 receptors; [2]) [µM]
CS(=O)(=O)NCC1(c2ccc(N3CCC[C@@H](NC(=O)Nc4cnc(Cl)cn4)C3=O)cc2)CCC1 [Example 6] | 0.0007 | 0.1 | 
CS(=O)(=O)NCC1(c2ccc(N3CCC[C@@H](NC(=O)Nc4ccc(C(F)(F)F)cc4)C3=O)cc2F)CC1 [Example 18] | 0.00017 | 0.002 | 
CS(=O)(=O)NCC1(c2ccc(N3CCC[C@@H](NC(=O)Nc4cnc(Cl)cn4)C3=O)cc2)CC1 [Example 27] | 0.00091 | 0.13 | 
CS(=O)(=O)NCC1(c2ccc(N3CCC[C@H](NC(=O)Nc4ncc(Cl)cc4F)C3=O)cc2)CC1 [Example 41] | 0.98 | 7.6 | 
CS(=O)(=O)NCC1(c2ccc(N3CCC[C@@H](NC(=O)Nc4ccc(C(F)(F)F)cc4)C3=O)cc2)CC1 [Example 42] | 0.00021 | 0.033 | 
O=C(Nc1ccc(C(F)(F)F)nc1)N[C@@H]1CCCN(c2ccc(C3(CN4CCOCC4)CCC3)cc2)C1=O [Example 52, (R)-1-(1-(4-(1-(Morpholinomethyl)cyclobutyl)phenyl)-2-oxopiperidin-3-yl)-3-(6-(trifluoromethyl)pyridin-3-yl)urea] | 0.017 | 0.56 | 
O=C(Nc1ccc(Cl)cn1)N[C@@H]1CCCN(c2ccc(C3(CN4CCOCC4)CC3)cc2)C1=O [Example 53, (R)-1-(5-chloropyridin-2-yl)-3-(1-(4-(1-(morpholinomethyl)cyclopropyl)phenyl)-2-oxopiperidin-3-yl)urea] | 0.017 | 0.7 | 
O=C(Nc1ccc(C(F)(F)F)nc1)N[C@H]1CCCN(c2ccc(C3(CN4CCCC4)CCC3)cc2)C1=O [Example 57, (S)-1-(2-oxo-1-(4-(1-(pyrrolidin-1-ylmethyl)cyclobutyl)phenyl)piperidin-3-yl)-3-(6-(trifluoromethyl)pyridin-3-yl)urea] | 0.96 | > 5000 | 
O=C(Nc1ccc(C(F)(F)F)nc1)N[C@H]1CCCN(c2ccc(C3(CN4CCCC4)CCCC3)cc2)C1=O [Example 58, (S)-1-(2-oxo-1-(4-(1-(pyrrolidin-1-ylmethyl)cyclopentyl)phenyl)piperidin-3-yl)-3-(6-(trifluoromethyl)pyridin-3-yl)urea] | 1 | 3.4 | 
O=C(Nc1ccc(C(F)(F)F)nc1)N[C@H]1CCCN(c2ccc(C3(CN4CCOCC4)CCC3)cc2)C1=O [Example 62, (S)-1-(1-(4-(1-(morpholinomethyl)cyclobutyl)phenyl)-2-oxopipendin-3-yl)-3-(6-(trifluoromethyl)pyridin-3-yl)urea] | 1.2 | 1.1 | 
O=C(Nc1ccc(C(F)(F)F)cn1)N[C@@H]1CCCN(c2ccc(C3(CN4CCOCC4)CCCC3)cc2)C1=O [Example 65, (R)-1-(1-(4-(1-(morpholinomethyl)cyclopentyl)phenyl)-2-oxopiperidin-3-yl)-3-(5-(trifluoromethyl)pyridin-2-yl)urea] |  |  | 0.1 to 1.25
O=C(Nc1ccc(C(F)(F)F)nc1)N[C@@H]1CCCN(c2ccc(C3(CN4CCCC4)CC3)cc2)C1=O [Example 66, (R)-1-(2-oxo-1-(4-(1-(pyrrolidin-1-ylmethyl)cyclopropyl)phenyl)piperidin-3-yl)-3-(6-(trifluoromethyl)pyridin-3-yl)urea] |  |  | 0.1 to 1.25
CN(C)CC1(c2ccc(N3CCC[C@@H](NC(=O)Nc4ccc(C(F)(F)F)nc4)C3=O)cc2)CC1 [Example 67, (R)-1-(1-(4-(1-((dimethylamino)methyl)cyclopropyl)phenyl)-2-oxopiperidin-3-yl)-3-(6-(trifluoromethyl)pyridin-3-yl)urea] |  |  | 0.1 to 1.25
CS(=O)(=O)NCC1(c2ccc(N3C[C@H](O)C[C@@H](NC(=O)Nc4ncc(C(F)(F)F)cc4F)C3=O)cc2)CC1 [Example 68, N-((1-(4-((3R,5R)-3-(3-(3-Fluoro-5-(trifluoromethyl)pyridin-2-yl)ureido)-5-hydroxy-2-oxopiperidin-1-yl)phenyl)cyclopropyl)methyl)methanesulfonamide] |  |  | 0.01 to 0.1
CS(=O)(=O)NCC1(c2ccc(N3C[C@@H](O)C[C@H](NC(=O)Nc4ncc(C(F)(F)F)cc4F)C3=O)cc2)CC1 [Example 69, N-((1-(4-((3S,5S)-3-(3-(3-fluoro-5-(trifluoromethyl)pyridin-2-yl)ureido)-5-hydroxy-2-oxopiperidin-1-yl)phenyl)cyclopropyl)methyl)methanesulfonamide] | 0.019 | 0.66 | 
CS(=O)(=O)NCC1(c2ccc(N3C[C@H](O)C[C@@H](NC(=O)Nc4ncc(Cl)cc4F)C3=O)cc2)CC1 [Example 70] |  |  | 0.01 to 0.1
CS(=O)(=O)NCC1(c2ccc(N3C[C@@H](O)C[C@@H](NC(=O)Nc4ncc(Cl)cc4F)C3=O)cc2)CC1 [Example 71] | 0.017 | 2.1 | 
CC(=O)NC(C)C1(c2ccc(N3CCC[C@@H](NC(=O)Nc4ccc(C(F)(F)F)nc4)C3=O)cc2)CC1 (stereo partly drawn) [Example 73] | 83 | 330 | 
O=C(Nc1ccc(Cl)cc1F)N[C@@H]1CCCN(c2ccc(C3CCC(O)C3)cc2)C1=O (stereo partly drawn) [Example 77, 1-(4-Chloro-2-fluorophenyl)-3-((3R)-1-(4-(3-hydroxycyclopentyl)phenyl)-2-oxopiperidin-3-yl)urea] | 3.2 | 3.6 | 
